{"source": "patent US20150176037A1", "about": "“OXIDOREDUCTASE REACTION CONTROL AND USE THEREOF” (Amano Enzyme Inc., priority 2012, published 2015)", "molecular_target": "T1, formate dehydrogenase (FDH) (Candida boidinii, UniProt O13437)", "T1 sequence (O13437 1-364)": "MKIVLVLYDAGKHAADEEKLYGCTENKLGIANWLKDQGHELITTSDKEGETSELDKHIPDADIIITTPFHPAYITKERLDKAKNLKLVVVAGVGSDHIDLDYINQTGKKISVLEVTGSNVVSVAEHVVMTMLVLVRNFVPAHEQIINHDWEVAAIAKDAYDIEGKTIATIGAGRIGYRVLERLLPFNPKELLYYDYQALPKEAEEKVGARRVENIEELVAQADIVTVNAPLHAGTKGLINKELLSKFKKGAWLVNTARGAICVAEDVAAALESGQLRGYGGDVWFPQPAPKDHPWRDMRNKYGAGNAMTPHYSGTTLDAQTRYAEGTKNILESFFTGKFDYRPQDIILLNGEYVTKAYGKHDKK", "assay": "FDH reaction system using methylviologen as artificial coenzyme", "format": "biochemical", "settings": "5.0 units FDH", "protocol": "2.2 mM of formic acid, 4.4 mM of methylviologen (MV^2+ was used), and 5.0 units of FDH were incubated, and NADH was detected (lower row, left).\nThe enzyme catalyzing the reaction converting formic acid into carbon dioxide, “formate dehydrogenase (FDH)” also catalyzes the reaction converting carbon dioxide into formic acid. It should be noted that the speed of the conversion reaction from carbon dioxide into formic acid (reverse reaction) is about one sixth the speed of the conversion reaction from formic acid into carbon dioxide (forward reaction) (FIG. 1). Suppression of the forward reaction is important for the formation of formic acid from carbon dioxide using this enzyme. The original coenzyme of FDH is NAD^+, but methylviologen may be used as an artificial coenzyme (mediator) (Non-Patent Literature 2). However, in the past report, only the interaction between FDH and methylviologen is electrochemically measured, so that no essential finding about the interaction is obtained. Therefore, we studied the characteristics of the […] reaction system using methylviologen as an artificial coenzyme in detail. […] Methylviologen is advantageous also in that it is readily photoreduced using a photosensitive molecule. In contrast, photoreduction of the original coenzyme, NAD^+ is not easy.", "data": [{"molecule": "C[n+]1ccc(-c2cc[n+](C)cc2)cc1", "note": "[methylviologen, 1,1′-dimethyl-4,4′-bipyridinium dichloride]", "values": [{"measurement": "conversion reaction from carbon dioxide into formic acid (reverse reaction)", "setting": "2.2 mM CO2, 4.4 mM MV^2+ reduced", "result": "only proceeds"}, {"measurement": "conversion reaction from formic acid into carbon dioxide (forward reaction)", "setting": "2.2 mM formic acid, 4.4 mM MV^2+", "result": "does not proceed at all"}]}]}
